Data as given in PubChem BioAssay (NCI).
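Exposure lasted 48 hours, with cells grown in 96-well plates and compounds tested at five concentrations. GI50 = concentration required for 50% inhibition of growth. TGI denotes the concentration required for complete inhibition of growth.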

Assays:
Test in all cases: NCI tumour cell line growth inhibition, 48 h
KM12 colon = tested on: KM12 colon
A498 renal = tested on: A498 renal
EKVX NSCLC = tested on: EKVX NSCLC
HL-60(TB) leukemia = tested on: HL-60(TB) leukemia
MOLT-4 leukemia = tested on: MOLT-4 leukemia
MALME-3M melanoma = tested on: MALME-3M melanoma
SN12C renal = tested on: SN12C renal
SK-MEL-5 melanoma = tested on: SK-MEL-5 melanoma
PC-3 prostate = tested on: PC-3 prostate
OVCAR-4 ovarian = tested on: OVCAR-4 ovarian
SK-OV-3 ovarian = tested on: SK-OV-3 ovarian
LOX IMVI melanoma = tested on: LOX IMVI melanoma
OVCAR-3 ovarian = tested on: OVCAR-3 ovarian
ACHN renal = tested on: ACHN renal
TK-10 renal = tested on: TK-10 renal
786-0 renal = tested on: 786-0 renal
MDA-MB-231 breast = tested on: MDA-MB-231 breast
DU-145 prostate = tested on: DU-145 prostate
SF-539 CNS = tested on: SF-539 CNS
SK-MEL-2 melanoma = tested on: SK-MEL-2 melanoma
NCI-H522 lung = tested on: NCI-H522 lung
NCI/ADR-RES ovarian = tested on: NCI/ADR-RES ovarian
HCC-2998 colon = tested on: HCC-2998 colon
UACC-257 melanoma = tested on: UACC-257 melanoma
UO-31 renal = tested on: UO-31 renal
SF-295 CNS = tested on: SF-295 CNS
MDA-MB-435 = tested on: MDA-MB-435
CCRF-CEM leukemia = tested on: CCRF-CEM leukemia
A549 NSCLC = tested on: A549 NSCLC
OVCAR-5 ovarian = tested on: OVCAR-5 ovarian
SNB-19 CNS = tested on: SNB-19 CNS
K-562 leukemia = tested on: K-562 leukemia
SF-268 CNS = tested on: SF-268 CNS
RXF 393 renal = tested on: RXF 393 renal
CAKI-1 renal = tested on: CAKI-1 renal
UACC-62 melanoma = tested on: UACC-62 melanoma
SW-620 colon = tested on: SW-620 colon
HOP-92 NSCLC = tested on: HOP-92 NSCLC
HCT-15 colon = tested on: HCT-15 colon
M14 melanoma = tested on: M14 melanoma
HCT-116 colon = tested on: HCT-116 colon
T-47D breast = tested on: T-47D breast
SR leukemia = tested on: SR leukemia
HS 578T breast = tested on: HS 578T breast
BT-549 breast = tested on: BT-549 breast
OVCAR-8 ovarian = tested on: OVCAR-8 ovarian
NCI-H460 lung = tested on: NCI-H460 lung
HOP-62 NSCLC = tested on: HOP-62 NSCLC
U251 CNS = tested on: U251 CNS
IGROV1 ovarian = tested on: IGROV1 ovarian
SK-MEL-28 melanoma = tested on: SK-MEL-28 melanoma
NCI-H226 lung = tested on: NCI-H226 lung
RPMI-8226 leukemia = tested on: RPMI-8226 leukemia
COLO 205 colon = tested on: COLO 205 colon
SNB-75 CNS = tested on: SNB-75 CNS
HT29 colon = tested on: HT29 colon

For `CN(C)CCCNc1c2ccc(Cl)cc2nc2c1oc1ccc(Cl)cc12`, the GI50 (KM12 colon) was 2.65 µM, the TGI (KM12 colon) was 8.35 µM and the GI50 (A498 renal) was 15.3 µM. The TGI (A498 renal) was 31.4 µM, the GI50 (EKVX NSCLC) was 4.76 µM and the TGI (EKVX NSCLC) was 17.3 µM. It also gave a GI50 (HL-60(TB) leukemia) of 1.98 µM, a TGI (HL-60(TB) leukemia) of 4.81 µM and a GI50 (MOLT-4 leukemia) of 3.14 µM. The TGI (MOLT-4 leukemia) was 11.8 µM, the GI50 (MALME-3M melanoma) was 4.76 µM and the TGI (MALME-3M melanoma) was 20.5 µM. The GI50 (SN12C renal) was 1.72 µM, the TGI (SN12C renal) was 3.51 µM and the GI50 (SK-MEL-5 melanoma) was 16.3 µM. For the same molecule, the TGI (SK-MEL-5 melanoma) was 29.8 µM, the GI50 (PC-3 prostate) was 1.81 µM and the TGI (PC-3 prostate) was 3.86 µM. It also gave a GI50 (OVCAR-4 ovarian) of 1.67 µM, a TGI (OVCAR-4 ovarian) of 3.32 µM and a GI50 (SK-OV-3 ovarian) of 10.1 µM. The TGI (SK-OV-3 ovarian) was 21.7 µM, the GI50 (LOX IMVI melanoma) was 1.89 µM and the TGI (LOX IMVI melanoma) was 3.4 µM. For the same molecule, the GI50 (OVCAR-3 ovarian) was 2.24 µM, the TGI (OVCAR-3 ovarian) was 4.99 µM and the GI50 (ACHN renal) was 1.7 µM. It also gave a TGI (ACHN renal) of 3.23 µM, a GI50 (TK-10 renal) of 13.1 µM and a TGI (TK-10 renal) of 26 µM. The GI50 (786-0 renal) was 1.65 µM, the TGI (786-0 renal) was 3.25 µM and the GI50 (MDA-MB-231 breast) was 2.19 µM. The TGI (MDA-MB-231 breast) was 5.94 µM, the GI50 (DU-145 prostate) was 3.01 µM and the TGI (DU-145 prostate) was 9.1 µM. The GI50 (SF-539 CNS) was 1.81 µM, the TGI (SF-539 CNS) was 3.24 µM and the GI50 (SK-MEL-2 melanoma) was 13.6 µM. For the same molecule, the TGI (SK-MEL-2 melanoma) was 26.8 µM, the GI50 (NCI-H522 lung) was 4.22 µM and the TGI (NCI-H522 lung) was 17 µM. It also gave a GI50 (NCI/ADR-RES ovarian) of 2.31 µM, a TGI (NCI/ADR-RES ovarian) of 6.59 µM and a GI50 (HCC-2998 colon) of 1.84 µM. It also gave a TGI (HCC-2998 colon) of 3.38 µM, a GI50 (UACC-257 melanoma) of 12.3 µM and a TGI (UACC-257 melanoma) of 25.5 µM. The GI50 (UO-31 renal) was 4.13 µM, the TGI (UO-31 renal) was 18.3 µM and the GI50 (SF-295 CNS) was 4.72 µM. The TGI (SF-295 CNS) was 17.1 µM, the GI50 (MDA-MB-435) was 2.18 µM and the TGI (MDA-MB-435) was 5.57 µM. It also gave a GI50 (CCRF-CEM leukemia) of 3.42 µM, a TGI (CCRF-CEM leukemia) of 12.2 µM and a GI50 (A549 NSCLC) of 1.67 µM. The TGI (A549 NSCLC) was 3.18 µM, the GI50 (OVCAR-5 ovarian) was 7.03 µM and the TGI (OVCAR-5 ovarian) was 19.7 µM. For the same molecule, the GI50 (SNB-19 CNS) was 5.97 µM, the TGI (SNB-19 CNS) was 18.8 µM and the GI50 (K-562 leukemia) was 2.73 µM. It also gave a GI50 (SF-268 CNS) of 3.45 µM, a TGI (SF-268 CNS) of 15.3 µM and a GI50 (RXF 393 renal) of 2.68 µM. It also gave a TGI (RXF 393 renal) of 8.4 µM, a GI50 (CAKI-1 renal) of 1.49 µM and a TGI (CAKI-1 renal) of 2.9 µM. For the same molecule, the GI50 (UACC-62 melanoma) was 16.4 µM, the TGI (UACC-62 melanoma) was 31.6 µM and the GI50 (SW-620 colon) was 1.64 µM. The TGI (SW-620 colon) was 3.63 µM, the GI50 (HOP-92 NSCLC) was 1.41 µM and the TGI (HOP-92 NSCLC) was 7.69 µM. It also gave a GI50 (HCT-15 colon) of 2.1 µM, a TGI (HCT-15 colon) of 5.71 µM and a GI50 (M14 melanoma) of 1.71 µM. It also gave a TGI (M14 melanoma) of 3.78 µM, a GI50 (HCT-116 colon) of 1.43 µM and a TGI (HCT-116 colon) of 2.79 µM. The GI50 (T-47D breast) was 13.1 µM, the TGI (T-47D breast) was 29.2 µM and the GI50 (SR leukemia) was 3.04 µM. The TGI (SR leukemia) was 10.1 µM, the GI50 (HS 578T breast) was 8.82 µM and the TGI (HS 578T breast) was 28.2 µM. It also gave a GI50 (BT-549 breast) of 11.4 µM, a TGI (BT-549 breast) of 25 µM and a GI50 (OVCAR-8 ovarian) of 2.07 µM. The TGI (OVCAR-8 ovarian) was 4.45 µM, the GI50 (NCI-H460 lung) was 2.1 µM and the TGI (NCI-H460 lung) was 4.8 µM. The GI50 (HOP-62 NSCLC) was 5.21 µM, the TGI (HOP-62 NSCLC) was 19.6 µM and the GI50 (U251 CNS) was 1.76 µM. For the same molecule, the TGI (U251 CNS) was 3.35 µM, the GI50 (IGROV1 ovarian) was 3.66 µM and the TGI (IGROV1 ovarian) was 15.9 µM. It also gave a GI50 (SK-MEL-28 melanoma) of 14 µM, a TGI (SK-MEL-28 melanoma) of 27.2 µM and a GI50 (NCI-H226 lung) of 6.32 µM. It also gave a TGI (NCI-H226 lung) of 20.9 µM, a GI50 (RPMI-8226 leukemia) of 2.58 µM and a TGI (RPMI-8226 leukemia) of 7.84 µM. For the same molecule, the GI50 (COLO 205 colon) was 4.58 µM, the TGI (COLO 205 colon) was 20 µM and the GI50 (SNB-75 CNS) was 5.25 µM. The TGI (SNB-75 CNS) was 19.2 µM, the GI50 (HT29 colon) was 1.69 µM and the TGI (HT29 colon) was 3.5 µM.
